Measurements taken from PubChem BioAssay AID1963847 (Molecular Pharmacology Branch, DTP, NCI, 2024).

System: 415267-285-R-J2-PDC complex spheroid viability
Test: Anticancer human tumor 415267-285-R-J2-PDC patient-derived breast carcinoma cell line growth inhibition [POLQ]
Settings: for IC50: curve of first compound; for viability, T/C: stronger effect = lower value
In short: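 Three-cell-type spheroids modelling solid tumor plus stroma served as the readout system; POL inhibitors were tested individually and in combination, concentration ranges set by clinical Cmax where known.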

[1] = second compound 0.0316 µM, first compound 0.0316 µM
[2] = second compound 0.0316 µM, first compound 0.1 µM
[3] = second compound 0.0316 µM, first compound 0.316 µM
[4] = second compound 0.0316 µM, first compound 1 µM
[5] = second compound 0.0316 µM, first compound 3.16 µM
[6] = second compound 0.0316 µM, first compound 10 µM
[7] = second compound 0.1 µM, first compound 0.0316 µM
[8] = second compound 0.1 µM, first compound 0.1 µM
[9] = second compound 0.1 µM, first compound 0.316 µM
[10] = second compound 0.1 µM, first compound 1 µM
[11] = second compound 0.1 µM, first compound 3.16 µM
[12] = second compound 0.1 µM, first compound 10 µM
[13] = second compound 0.316 µM, first compound 0.0316 µM
[14] = second compound 0.316 µM, first compound 0.1 µM
[15] = second compound 0.316 µM, first compound 0.316 µM
[16] = second compound 0.316 µM, first compound 1 µM
[17] = second compound 0.316 µM, first compound 3.16 µM
[18] = second compound 0.316 µM, first compound 10 µM
[19] = second compound 1 µM, first compound 0.0316 µM
[20] = second compound 1 µM, first compound 0.1 µM
[21] = second compound 1 µM, first compound 0.316 µM
[22] = second compound 1 µM, first compound 1 µM
[23] = second compound 1 µM, first compound 3.16 µM
[24] = second compound 1 µM, first compound 10 µM
[25] = second compound 3.16 µM, first compound 0.0316 µM
[26] = second compound 3.16 µM, first compound 0.1 µM
[27] = second compound 3.16 µM, first compound 0.316 µM
[28] = second compound 3.16 µM, first compound 1 µM
[29] = second compound 3.16 µM, first compound 3.16 µM
[30] = second compound 3.16 µM, first compound 10 µM
[31] = second compound 10 µM, first compound 0.0316 µM
[32] = second compound 10 µM, first compound 0.1 µM
[33] = second compound 10 µM, first compound 0.316 µM
[34] = second compound 10 µM, first compound 1 µM
[35] = second compound 10 µM, first compound 3.16 µM
[36] = second compound 10 µM, first compound 10 µM
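Further: spheroids exposed to compounds for one week before readout.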
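Wherever viability, T/C is given: luminescence used as stand-in measure of viable cells; 100% = DMSO vehicle control viability.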

CC1COCCN1c1cc(-c2ccnn2C)c2ccnc(-c3ccn[nH]3)c2n1 (stereo unspecified) + Nc1ccc(C#CCN(C(=O)Cc2ncc(C(F)(F)F)cc2C(F)(F)F)c2ccc(F)cc2)nn1
IC50 (second compound 0.0316 µM): 42.7 nM | IC50 (second compound 0.1 µM): 40.2 nM | IC50 (second compound 0.316 µM): 40 nM | IC50 (second compound 1 µM): 36.9 nM | IC50 (second compound 3.16 µM): 32.6 nM | IC50 (second compound 10 µM): < 31.6 nM | viability, T/C [1]: 63.7% | viability, T/C [2]: 11.2% | viability, T/C [3]: 5.02% | viability, T/C [4]: 3.87% | viability, T/C [5]: 4.17% | viability, T/C [6]: 3.9% | viability, T/C [7]: 60.3% | viability, T/C [8]: 10.8% | viability, T/C [9]: 4.23% | viability, T/C [10]: 3.18% | viability, T/C [11]: 4.26% | viability, T/C [12]: 3.58% | viability, T/C [13]: 60% | viability, T/C [14]: 11.4% | viability, T/C [15]: 4.5% | viability, T/C [16]: 3.99% | viability, T/C [17]: 3.82% | viability, T/C [18]: 4% | viability, T/C [19]: 56.4% | viability, T/C [20]: 8.91% | viability, T/C [21]: 4.69% | viability, T/C [22]: 3.73% | viability, T/C [23]: 3.7% | viability, T/C [24]: 3.28% | viability, T/C [25]: 51.2% | viability, T/C [26]: 9.4% | viability, T/C [27]: 5.57% | viability, T/C [28]: 3.36% | viability, T/C [29]: 3.4% | viability, T/C [30]: 4.22% | viability, T/C [31]: 42.1% | viability, T/C [32]: 10.7% | viability, T/C [33]: 5.92% | viability, T/C [34]: 3.97% | viability, T/C [35]: 3.84% | viability, T/C [36]: 4.9%

CC1COCCN1c1cc(C2(O)CC3CCC(C2)O3)c2cnn(-c3ccn[nH]3)c2n1 (stereo unspecified) + Cc1cccc(N(C)C(=O)C2C(O)CCN2c2nc(C)cc(C(F)(F)F)c2C#N)c1
IC50 (second compound 0.0316 µM): < 31.6 nM | IC50 (second compound 0.1 µM): < 31.6 nM | IC50 (second compound 0.316 µM): < 31.6 nM | IC50 (second compound 1 µM): < 31.6 nM | IC50 (second compound 3.16 µM): < 31.6 nM | IC50 (second compound 10 µM): < 31.6 nM | viability, T/C [1]: 18.2% | viability, T/C [2]: 7.78% | viability, T/C [3]: 5.17% | viability, T/C [4]: 4.79% | viability, T/C [5]: 4.69% | viability, T/C [6]: 4.06% | viability, T/C [7]: 17.1% | viability, T/C [8]: 6.52% | viability, T/C [9]: 4.78% | viability, T/C [10]: 4.34% | viability, T/C [11]: 5.05% | viability, T/C [12]: 5.28% | viability, T/C [13]: 17.9% | viability, T/C [14]: 5.44% | viability, T/C [15]: 5.64% | viability, T/C [16]: 4.91% | viability, T/C [17]: 4.67% | viability, T/C [18]: 4.41% | viability, T/C [19]: 24.7% | viability, T/C [20]: 6.22% | viability, T/C [21]: 4.58% | viability, T/C [22]: 4.12% | viability, T/C [23]: 4.85% | viability, T/C [24]: 5.19% | viability, T/C [25]: 20.4% | viability, T/C [26]: 6.14% | viability, T/C [27]: 5.01% | viability, T/C [28]: 4.84% | viability, T/C [29]: 4.41% | viability, T/C [30]: 4.56% | viability, T/C [31]: 21.4% | viability, T/C [32]: 6.79% | viability, T/C [33]: 5.41% | viability, T/C [34]: 5.44% | viability, T/C [35]: 4.9% | viability, T/C [36]: 4.36%

C=CCn1c(=O)c2cnc(Nc3ccc(N4CCN(C)CC4)cc3)nc2n1-c1cccc(C(C)(C)O)n1 + Cc1cccc(N(C)C(=O)C2C(O)CCN2c2nc(C)cc(C(F)(F)F)c2C#N)c1
IC50 (second compound 0.0316 µM): 444 nM | IC50 (second compound 0.1 µM): 475 nM | IC50 (second compound 0.316 µM): 460 nM | IC50 (second compound 1 µM): 486 nM | IC50 (second compound 3.16 µM): 452 nM | IC50 (second compound 10 µM): 425 nM | viability, T/C (second compound 0.0316 µM, first compound 0.00316 µM): 103% | viability, T/C (second compound 0.0316 µM, first compound 0.01 µM): 102% | viability, T/C [1]: 104% | viability, T/C [2]: 116% | viability, T/C [3]: 67.6% | viability, T/C [4]: 8% | viability, T/C (second compound 0.1 µM, first compound 0.00316 µM): 96.6% | viability, T/C (second compound 0.1 µM, first compound 0.01 µM): 102% | viability, T/C [7]: 106% | viability, T/C [8]: 112% | viability, T/C [9]: 73.6% | viability, T/C [10]: 6.74% | viability, T/C (second compound 0.316 µM, first compound 0.00316 µM): 103% | viability, T/C (second compound 0.316 µM, first compound 0.01 µM): 105% | viability, T/C [13]: 109% | viability, T/C [14]: 94.5% | viability, T/C [15]: 71% | viability, T/C [16]: 7.48% | viability, T/C (second compound 1 µM, first compound 0.00316 µM): 103% | viability, T/C (second compound 1 µM, first compound 0.01 µM): 103% | viability, T/C [19]: 107% | viability, T/C [20]: 108% | viability, T/C [21]: 76.1% | viability, T/C [22]: 6.25% | viability, T/C (second compound 3.16 µM, first compound 0.00316 µM): 102% | viability, T/C (second compound 3.16 µM, first compound 0.01 µM): 109% | viability, T/C [25]: 108% | viability, T/C [26]: 123% | viability, T/C [27]: 69% | viability, T/C [28]: 7.86% | viability, T/C (second compound 10 µM, first compound 0.00316 µM): 108% | viability, T/C (second compound 10 µM, first compound 0.01 µM): 106% | viability, T/C [31]: 122% | viability, T/C [32]: 114% | viability, T/C [33]: 64.1% | viability, T/C [34]: 9.37%
